Experimental data published in patent publication US20120201935A1, “SWEETNESS ENHANCER, SWEETENER COMPOSITIONS, METHODS OF MAKING THE SAME AND CONSUMABLES CONTAINING THE SAME” (NUTRINOVA NUTRITION SPECIALTIES & FOOD INGREDIENTS GMBH, priority 2011, published 2012).
Entries after “also recorded” stand apart in the source; their conditions may differ.

Columns and labels:
[1] = test system: HEKα15#17 cells (control cell line without sweet receptor); test: Same calcium assay on the control cell line without sweet receptor; type: cell-based; conditions: FIG. 1 grey bars
Experimental: (§1) For measurement of human T1R2/T1R3 taste receptor dependent activity a control cell line without sweet receptor based on HEK 293 and a cell line expressing the sweet receptor hT1R2/hT1R3 based on HEK 293, respectively, are seeded into assay plates and labelled with the calcium sensitive fluorescence dye Fluo4-AM in a culture medium. The potential modulators, e.g. the test compound, are added to the control cell line and to the cell line expressing the sweet receptor hT1R2/hT1R3, respectively.
(§2) A stable cell line based on HEK293 was termed HEKα15#17 served as control for functional Gα-protein and a stable cell line HEKGα15#17R2R3b#8 C6 served as cell line expressing the sweet receptor hT1R2/hT1R3 based on HEKGα15#17.
(§3) The cells were cultured in DMEM/HG and 10% FCS Gold, 4 mM L-Glutamin, 1.3 mg/ml Geneticin (HEKGα15#17) or the same medium additionally containing 6 μg/ml Blasticidin (HEKGα15#17R2R3b#8 C6). The medium for the assay was DMEM/HG (high glucose, 4.5 g/l glucose, Life Technologies) and 10% FCS Gold, 4 mM L-Glutamin (HEKGα15#17) or DMEM/LG (low glucose, 1 g/l glucose; Life Technologies) and 10% FCS Gold (HEKGα15#17R2R3b#8C6), respectively. 1.3 Evaluation of the sweet receptor modulating activity of rosmarinic acid
In order to evaluate the sweet receptor modulating activity of rosmarinic acid, rosmarinic acid was added to the cultures in a concentration of 25 μM in a volume of 50 μl. Controls were KH-buffer (Krebs HEPES-buffer: 118 mM NaCl, 4.7 mM KCl, 1.2 mM MgSO4, 1.2 mM KH2PO4, 4.2 mM NaHCO3, 1.3 mM CaCl2, 10 mM Hepes, pH 7.4) either without or with sweetness enhancer.
Further controls for function of G-protein and receptor were isoproterenol Sigma Aldrich), ionomycin (1 μM, Calbiochem) and ATP (1 μM, Applichem).
For measurement of human T1R2/T1R3 taste receptor dependent activity, on day 1 of the test procedure the HEKα15#17 cells (control cell line without sweet receptor) and the HEKGα15#17R2R3b#8 C6 cells (cell line expressing the sweet receptor hT1R2/hT1R3), respectively, were transferred to low-glucose medium.
On day 2 the cells were seeded into assay plates at a density of 25.000 cells/well. Assay plates for fluorescence measurement (black clear bottom 96-cavity plates, Greiner Bio-One) were coated with poly-D-lysine. For direct comparison both cell lines (control cell line without sweet receptor and cell line expressing the sweet receptor hT1R2/hT1R3) were seeded into different cavities of the same assay plate. The plate was placed into the incubator for 48 hours at 37° C., 5% CO2, 100% relative humidity.
On day 4 the calcium assay was performed. For this assay, the cells were marked with Fluo4-AM in medium and KH-buffer. To each cavity 100 μl KH-Puffer/250 μM sulfinpyrazone/4 μM Fluo4-AM were added gently to 100 μl medium (final concentration of Fluo4-AM=2 μM, stock solution of Fluo4-AM 1 mM in DMSO, excitation at 485 nm, emission at 520 nm, Fisher Scientific, 58239 Schwerte, Germany).
The plate was placed into the incubator for 1 hour. In the mean time the test substances (“ligands”) were prepared in a separate plate (5 times concentrated, 150 μl/cavity, and then automatically 50 μl/cavity were transferred into the screening cell plate by pipetting robot (FLEX-station, Molecular Devices, Sunnyvale, Calif.).
The culture medium was carefully removed and 200 μl KH-buffer/250 μM sulfinpyrazone per cavity was added slowly. Cells were left in the FLEX-station for 20 minutes for adaptation, followed by measurement at 37° C.
In the bar diagram the grey bars (control—without hT1R2/hT1R3) indicate the measured Fluo4-AM fluorescence increase of the respective test compound added to the control cell line, the black bars (assay—with hT1R2/hT1R3) indicate the measured Fluo4-AM fluorescence increase of the respective test compound added to the cell line expressing the sweet receptor hT1R2/hT1R3.

[2] = Taste and spit assay with a panel of trained sensory evaluators; type: in vivo, human; conditions: 5 panelists
Excerpt: The taste of a sample of a compound, e.g. rosmarinic acid, with regard to sweetness and/or sweetness enhancing properties, in other embodiments, may be assessed in vivo by using a panel of trained sensory evaluators experienced in the sweet taste estimation procedure, e.g. in the taste and spit assay as described e.g. in Example 2.
(§4) In these cases, panelists are asked to take a sample of the liquid to be assessed (test substance, e.g. rosmarinic acid) into the mouth and after some time allowed for taste perception to spit the sample out completely. Subsequently, the panelists are asked to rinse their mouth well with water or black tea to reduce any potential carry over effects. The tasting of a sample can be repeated if required.
In a first descriptive test (qualitative assessment for sweetness) the panelists are asked to taste the quality of single samples (maximum 3 subsequent samples). The individuals of the taste panel are asked to answer the following questions with regard to the quality of taste: 1) does the sample taste sweet?. 2) is there another taste detectable (bitter, sour, salty, umami)?. 3) is there an off- or aftertaste?. 4) is there anything else remarkable about the perception of the sample?
In the next step (assessment of sweetness enhancing, e.g. fructose enhancing, features) the panelists are asked to answer questions in a pairwise comparison test to determine the enhancement of sweet taste of the test substance with fructose relative to fructose only. Again the panelists are given samples. Two samples are prepared for direct comparison regarding sweetness. One sample contains fructose in a solvent and the other sample additionally contains the test substance. Designation of the samples with A and B is randomized and is decoded after the taste procedure. The questions to be answered are: 1) does one sample taste sweeter than the other?, 2) if so, which one?, 3) are there any other differences in the taste between the two samples? The result of the taste and spit assay is a qualitative evaluation of the differences between the two samples.
The taste of a sample of rosmarinic acid with regard to sweetness and fructose enhancing features was assessed by using a panel of trained sensory evaluators experienced in the sweet taste estimation procedure. 5 individuals were asked to taste the quality of single samples of 10 ml volume.
as §4, with “Panelists were” for “In these cases, panelists are”, “(20 μM test substance” for “(test substance, e.g.”, “acid in 0.5% ethanol)” for “acid)”, “were” for “are”, “could” for “can”, “required. […]” for “required.”

[3] = biological target: T1, human taste receptor T1R2/T1R3 (Homo sapiens, UniProt Q7RTX0+Q8TE23); test: Recombinant human taste receptor T1R2/T1R3 dependent cell based calcium assay (Fluo4-AM), cell line expressing the sweet receptor
T1 construct: expressed in transfected cells; host or cells: HEK293 stably expressing mouse G-alpha-15 (HEKGα15#17R2R3b#8 C6)
T1 sequence (Q8TE23 20-839): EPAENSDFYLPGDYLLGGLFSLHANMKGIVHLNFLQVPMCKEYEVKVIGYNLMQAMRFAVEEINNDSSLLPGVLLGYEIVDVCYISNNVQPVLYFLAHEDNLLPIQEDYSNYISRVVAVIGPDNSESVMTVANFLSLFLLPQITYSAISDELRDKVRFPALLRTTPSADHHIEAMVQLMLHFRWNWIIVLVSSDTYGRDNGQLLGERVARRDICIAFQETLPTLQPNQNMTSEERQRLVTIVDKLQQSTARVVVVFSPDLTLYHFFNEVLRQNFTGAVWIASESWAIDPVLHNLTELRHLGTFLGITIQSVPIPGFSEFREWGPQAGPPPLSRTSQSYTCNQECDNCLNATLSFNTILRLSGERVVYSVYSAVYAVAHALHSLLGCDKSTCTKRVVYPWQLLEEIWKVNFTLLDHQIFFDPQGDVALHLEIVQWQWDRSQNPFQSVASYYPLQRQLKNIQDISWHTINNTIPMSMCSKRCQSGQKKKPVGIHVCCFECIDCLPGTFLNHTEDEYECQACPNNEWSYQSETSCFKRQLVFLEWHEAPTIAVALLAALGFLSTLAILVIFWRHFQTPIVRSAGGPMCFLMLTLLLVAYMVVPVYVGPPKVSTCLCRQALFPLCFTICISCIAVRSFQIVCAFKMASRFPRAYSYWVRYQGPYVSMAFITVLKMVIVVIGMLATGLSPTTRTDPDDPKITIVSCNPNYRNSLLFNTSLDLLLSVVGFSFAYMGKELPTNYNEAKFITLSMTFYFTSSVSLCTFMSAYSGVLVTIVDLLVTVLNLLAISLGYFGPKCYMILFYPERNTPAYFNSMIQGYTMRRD
T1 sequence (Q7RTX0 21-852): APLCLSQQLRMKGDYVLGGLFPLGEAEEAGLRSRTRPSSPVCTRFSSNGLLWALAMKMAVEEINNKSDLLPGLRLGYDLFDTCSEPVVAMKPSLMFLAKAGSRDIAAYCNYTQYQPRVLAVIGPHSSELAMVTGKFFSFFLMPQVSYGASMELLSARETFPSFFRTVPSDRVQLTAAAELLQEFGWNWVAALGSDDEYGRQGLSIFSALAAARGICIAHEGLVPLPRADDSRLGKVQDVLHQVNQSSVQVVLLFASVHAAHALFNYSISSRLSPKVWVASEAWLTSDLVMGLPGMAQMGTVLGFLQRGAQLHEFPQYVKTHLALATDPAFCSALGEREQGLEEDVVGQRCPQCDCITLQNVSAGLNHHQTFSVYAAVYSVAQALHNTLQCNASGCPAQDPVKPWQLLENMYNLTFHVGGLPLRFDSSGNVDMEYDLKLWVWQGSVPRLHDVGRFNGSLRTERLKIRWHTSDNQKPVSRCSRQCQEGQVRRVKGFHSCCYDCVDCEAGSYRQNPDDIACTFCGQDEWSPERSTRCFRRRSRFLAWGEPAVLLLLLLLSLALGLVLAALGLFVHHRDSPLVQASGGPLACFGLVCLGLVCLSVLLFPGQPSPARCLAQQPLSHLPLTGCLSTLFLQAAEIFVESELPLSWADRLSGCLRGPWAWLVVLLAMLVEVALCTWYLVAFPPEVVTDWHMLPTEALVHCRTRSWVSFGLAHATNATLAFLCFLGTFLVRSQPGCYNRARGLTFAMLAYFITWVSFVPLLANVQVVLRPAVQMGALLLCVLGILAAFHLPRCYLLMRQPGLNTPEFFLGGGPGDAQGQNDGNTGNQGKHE
Experimental: as §1, §2
as §3, with “1.3 Evaluation of the sweet receptor modulating activity of rosmarinic acid” left out
On day 2 the cells were seeded into assay plates at a density of 25.000 cells/well. Assay plates for fluorescence measurement (black clear bottom 96-cavity plates, Greiner Bio-One) were coated with poly-D-lysine. […]

[4] = test compound without added enhancer/fructose, sodium cyclamate 30 mM, ATP 1 μM, ionomycin 1 μM, fructose 20 mM, rosmarinic acid 25 μM
[5] = 20 μM with 4% fructose in 0.5% ethanol

For `O=S(=O)([O-])NC1CCCCC1.[Na+]` [sodium cyclamate], the “Fluo4-AM fluorescence increase (activation) of the control cell line” value (from here on “Fluo4-AM fluorescence increase”) [1, 4] was “does not activate”.
For `C[C@H](CCC(=O)O)C[C@H](C)C[C@H](C)C(=O)/C=C(\O)[C@H](C)C[C@H](C)C/C=C/[C@@H](C)[C@@H](O)[C@@H](C)[C@@H](O)C[C@@H]1CC[C@@](C)([C@H]2CC[C@@](C)([C@@H](C)O)O2)O1` [ionomycin], the “Fluo4-AM fluorescence increase” value [1, 4] was “activate”.
For `CC(C)NCC(O)c1ccc(O)c(O)c1` (stereo not shown) [isoproterenol], the “Fluo4-AM fluorescence increase” value [1, 4] was “activate”.
With `Nc1ncnc2c1ncn2[C@@H]1O[C@H](COP(=O)(O)OP(=O)(O)OP(=O)(O)O)[C@@H](O)[C@H]1O` [ATP] the “Fluo4-AM fluorescence increase” value [1, 4] was “activate”.
With `O=C(/C=C/c1ccc(O)c(O)c1)O[C@H](Cc1ccc(O)c(O)c1)C(=O)O` [rosmarinic acid] the “Fluo4-AM fluorescence increase” value ([1]; rosmarinic acid 25 μM in the presence of fructose (20 mM)) was “does not activate”, the “Fluo4-AM fluorescence increase” value [1, 4] was “does not activate” and the “Off-taste or other taste (Phase I qualitative assessment)” value ([2]; 20 μM in 0.5% ethanol, 10 ml) was “No off-taste or any other taste than sweetness was detected”. For the same compound, the “Taste quality of the single sample (Phase I qualitative assessment)” value ([2]; 20 μM in 0.5% ethanol, 10 ml, ambient temperature) was “no characteristic intrinsic taste”, the “Panelists identifying the sample with 4% fructose plus test substance as sweeter than 4% fructose only (Phase II pairwise comparison)” value [2, 5] was “four” and the “Panelists tasting no difference between the two samples (Phase II pairwise comparison)” value [2, 5] was “One”. For the same compound, the “Time response in the cell assay” value ([3]; measured over ca. 1.5 minutes (86 seconds), FIG. 2) was “selective stimulation of receptor carrying cells” and the “Fructose enhancing activity in the cell based in vitro assay” value ([3]; rosmarinic acid in the presence of fructose) was “acting as a fructose enhancer; also recorded: enhances the activity of fructose; also recorded: acts as a fructose enhancer”.
For `O=C(CO)[C@@H](O)[C@H](O)[C@H](O)CO` [fructose], the “Fluo4-AM fluorescence increase” value [1, 4] was “does neither activate”.
